Data: article PMC11302729, “Repurposing Hsp90 inhibitors as antimicrobials targeting two-component systems identifies compounds leading to loss of bacterial membrane integrity” (Microbiology Spectrum, 2024)
Values after ≈ are worked out from the molar mass of the structure shown. Values joined by “and” are separate entries in the source; they are usually repeats but may differ in a detail not shown here. Equal values may be shown once. Read-outs that look alike come from different tables or passages of the source.

Columns and labels:
Assay type in all cases: cell-based
in vitro = conditions: human
Protocol: (§1) HEK293 cells and the human hepatocellular carcinoma cells (HepG2) were routinely cultured in 75-cm^2 culture flasks (Corning Incorporated) on high-glucose Dulbecco’s modified Eagle medium (DMEM) containing glutaMax and phenol red (Gibco) supplemented with 1% penicillin/streptomycin (Gibco) and 10% fetal bovine serum (FBS) (Gibco). Cells were maintained at 37°C and 5% CO2.
(§2) Cytotoxicity assays with HEK293 and HepG2 cells were performed in 96-well plates seeded with 5 × 10^4 cells/well and incubated for 24 hours to reach 80%–90% confluency. Exterior wells were filled with only medium to prevent evaporation. Culture medium was removed from the cells, and 100 µL of exposure medium [high-glucose DMEM without phenol red (Gibco)] was added to avoid a potential interaction between FBS components or antibiotics and tested compounds. A twofold dilution series of compounds in exposure medium (range 100–3.2 μg/mL) was made in a separate 96-well plate, and 100 µL of each of these dilutions was added to the assay plates for 24 hours at 37°C in the presence of 5% CO2. Control wells contained cells with DMEM, DMEM + 1% DMSO (vehicle control), or DMEM + 20% DMSO. Wells without cells were also included as negative control. After exposure, the medium was replaced with 100 µL 10% Alamar Blue (Invitrogen) in exposure medium. After 45 min incubation at 37°C and 5% CO2, fluorescence was measured on a Spectramax M5 plate reader at λex = 541 nm, λem = 590 nm. Cell viability compared with the vehicle control was calculated, and inhibition curves for each compound were fitted (non-linear curve fit, four variables, bottom constrained = 0) in Prism 9 (GraphPad Software, San Diego, USA).

HEK293 cells [1] = assay: in vitro; conditions: for Selectivity Index: LC50/MIC (HEK293 / S. aureus); for LC20: human, 24 h
Protocol: as §1, §2

HEK293 cells [2] = assay: Cell imaging of HEK293 cells; conditions: for cells in G2/M phase: HEK293, LC20, 24 hours exposure, DMSO control 2.68% ± 1.31%; for Morphological changes of HEK293 cells: LC20, 24 hours exposure, 40× amplification
Protocol: HEK293 cells were plated in 24-well plates on exposure medium for 24 hours (500,000 cells/well). Cells were exposed to a subset of compounds at a lethal concentration of 20% (LC20). After 24 hours exposure, cells were fixed with 2% glutaraldehyde for 15 min, washed with water, permeabilized with 0.5% Triton-X, washed twice with water, and stained with Toluidine blue 0.3%. For 100× amplification, cells were harvested by pipetting up and down in 250 µL of exposure medium. Cells from three wells treated with the same compound were pooled and centrifuged for 5 min at 1,500 r.p.m. The cell pellet was fixed in 0.1 M cacodylate buffer containing 2% glutaraldehyde (vol/vol) (pH 7.4). After 1 hour on ice, the pellet was washed with 0.1 M cacodylate buffer and fixed in 0.1 M cacodylate buffer containing 1% osmium tetroxide (wt/vol). After a further hour on ice, the cell pellet was embedded in hard Epon and 1-µm slides were cut and stained with 1% toluidine blue and 1% borax (wt/vol). Cell abnormalities were assessed by microscopy using a Leica DM6B light microscope (Leica Microsystems B.V., Amsterdam, the Netherlands) at 100× magnification.

[3] = test system: Pseudomonas aeruginosa ATCC 27853; assay: MIC (microdilution) against P. aeruginosa; conditions: Pseudomonas aeruginosa, ATCC27853; Table ST1; read-out: MIC P. aeruginosa
Protocol: (§3) Staphylococcus aureus str. Newman, Enterococcus faecalis vanA (strain E0155), Enterococcus faecium vanA (strain E1654), Escherichia coli ATCC 25922, Escherichia coli D21f2 with a truncated LPS barrier, Escherichia coli JW5503 (ΔtolC) ([49]), Pseudomonas aeruginosa ATCC 27853, and Pasteurella haemolytica ATCC 29701 were grown in Mueller-Hinton Broth (MHB) (Oxoid, Basingstoke, UK) and incubated at 37°C.
(§4) The minimal inhibitory concentration was determined using the microdilution method following the guidelines of the European Committee on Antimicrobial Susceptibility Testing ([50]). Briefly, a series of twofold dilutions in MHB of each compound were made in a 96-well plate, with final concentrations ranging from 50 to 0.39 µg/mL in 100 µL final volume per well. A hundred microliters of 1:100 dilution of an overnight culture of the correspondent bacteria in MHB was added to each well. Plates were incubated for 18 hours at 37°C. MIC was recorded as the lowest concentration where no growth was detected as measured by optical density at 600 nm (OD600) using Spectramax M5 (Molecular Devices LLC, San Jose, CA, USA). […] Wells containing bacteria with or without 1% DMSO and medium alone were included as controls in every plate.

[4] = test system: Escherichia coli JW5503 (ΔtolC); assay: MIC (microdilution) against E. coli JW5503; conditions: Escherichia coli, read-out: MIC E. coli JW5503
Source text: (§5) We also tested the inhibitory activity of compounds in two different E. coli mutants: (i) E. coli JW5503 that lacks TolC efflux pumps and (ii) E. coli D21f2 that has a defective LPS inner core increasing permeability of the outer membrane. E. coli D21f2 has a slightly higher susceptibility to DPP compounds than E. coli ATCC25922.
as §3, §4

[5] = test system: Enterococcus faecalis vanA (strain E0155); assay: MIC (microdilution) against E. faecalis; conditions: Enterococcus faecalis, read-out: MIC E. faecalis
Protocol: as §3, §4

[6] = test system: Enterococcus faecium vanA (strain E1654); assay: MIC (microdilution) against E. faecium; conditions: Enterococcus faecium, read-out: MIC E. faecium
Protocol: as §3, §4

[7] = test system: Escherichia coli ATCC 25922; assay: MIC (microdilution) against E. coli; conditions: Escherichia coli, ATCC25922; Table ST1; read-out: MIC E. coli
Protocol: as §3, §4

[8] = test system: Staphylococcus aureus str. Newman; assay: Minimal inhibitory concentration (microdilution) against S. aureus; conditions: for MIC S. aureus: Table ST3
Protocol: as §3, §4

[9] = test system: Pasteurella haemolytica ATCC 29701; assay: MIC (microdilution) against P. haemolytica; conditions: Mannheimia haemolytica
Protocol: as §3, §4

S. aureus str. Newman = assay: Membrane permeability using SYTOX-Green, flow cytometry; conditions: for % FITC stained bacteria 0.5 xMIC: 0.5× MIC; for % FITC stained bacteria 0.5 xMIC / % FITC stained bacteria 1 xMIC / % FITC stained bacteria 2 xMIC: 5 min exposure; for % FITC stained bacteria 1 xMIC: 1× MIC; for % FITC stained bacteria 2 xMIC: 2× MIC; for Membrane damage: if considered to cause membrane damage to S. aureus
Protocol: S. aureus str. Newman was grown to exponential phase (OD600 = 0.4) in MHB media. […] Nisin (Sigma-Aldrich) and novobiocin (Sigma-Aldrich) were used as positive and negative controls for membrane permeabilization, and stained and unstained untreated controls were also included in each assay. After exposure, samples were centrifuged at 4,000 r.p.m. for 5 min and resuspended in PBS. Bacteria were dyed by adding the fluorescent nuclear stain SYTOX Green (Molecular Probes, Invitrogen) to a final concentration of 0.5 µM and incubating for 5 min in the dark. Samples were centrifuged again and resuspended with PBS to remove unbound stain. Three hundred microliters of each sample was transferred to a clean well in a 96-well clear-bottom plate (Corning Incorporated). Fluorescence was measured in CytoFLEX flow cytometer (Beckman Coulter, Brea, CA, USA) using the green (FITC) channel with the excitation wavelength at 488 nm. Overlay histograms were created with CytExpert Software (Beckman Coulter, Brea, CA, USA).

sheep red blood cells = assay: Haemolysis assay; conditions: for Haemolysis: if considered to cause haemolysis to red blood cells
Protocol: The hemolysis assay was adapted from the study by Evans et al. ([65]). Briefly, sheep RBC 10% washed pooled cells in PBS (Rockland Immunochemicals, Limerick, PA, USA) were diluted 1:5 to give a final concentration of 2% RBCs in PBS. […] A non-treated control, 1% DMSO (vehicle control), and complete cell lysis control (Triton-X 2%) were included in each assay. After exposure samples were centrifuged at 4°C at 1,000 g for 15 min and 100 µL of supernatant transferred to a clean well in a 96-well, clear, flat-bottom plate (Corning Incorporated). Released hemoglobin was measured by absorption at 540 nm using a Spectramax M5 plate reader. The experiments were performed in quadruplicate. The percentage of hemolysis was calculated as follows:
Hemolysis=A540nm,testcondition−A540nm,DMSOcontrol/A540nm,TritonXControl−A540nm,DMSOcontrol

[10] = test system: Escherichia coli D21f2 with a truncated LPS barrier; assay: MIC (microdilution) against E. coli D21f2; conditions: read-out: MIC E coli D21f2
Source text: as §5, §3, §4

[11] = Staphylococcus aureus, NEWMAN, Fig 2
[12] = Staphylococcus aureus, NEWMAN, Fig 2, value in parentheses
[13] = Table ST3, value in parentheses
[14] = ATCC29701, read-out: MIC P. haemolytica, Table ST1
[15] = ATCC29701, Table ST1, read-out: MIC P. haemolytica

Structure (SMILES)	CC50 at 24 h (in vitro)	Selectivity Index (HEK293 cells [1])	MIC [3]	MIC [4]	MIC [5]	MIC [6]	MIC [7]	MIC [8, 11]	MIC [8, 12]	MIC S. aureus [8]	MIC [8, 13]	MIC [9, 14]	% FITC stained bacteria 0.5 xMIC (S. aureus str. Newman)	% FITC stained bacteria 1 xMIC (S. aureus str. Newman)	% FITC stained bacteria 2 xMIC (S. aureus str. Newman)	Membrane damage (S. aureus str. Newman)	Haemolysis (sheep red blood cells)	MIC [10]	other results
CCOc1ccc(-c2[nH]nc(C(F)(F)F)c2-c2ccc(OC)c(OC)c2)c(O)c1 [DPP-20]	16.5 µg/mL and 40.3 µM	1.32	> 250 µg/mL	6.25 µg/mL (≈ 15.3 µM)	25 µg/mL (≈ 61.2 µM)	25 µg/mL (≈ 61.2 µM)	> 250 µg/mL	12.5 µg/mL	30.5 µM	12.5 µg/mL (≈ 30.6 µM)	30.49 µM	> 250 µg/mL	31.90%	40.99%	50.97%	YES	–	–	LC20 (HEK293 cells [1]): 3 µg/mL (≈ 7.35 µM); cells in G2/M phase (HEK293 cells [2]): 26.25% ± 4.68%; Morphological changes of HEK293 cells (HEK293 cells [2]): no morphological changes; RBC hemolysis (sheep red blood cells): not hemolytic
CCOc1ccc(-c2[nH]nc(C(F)(F)F)c2-c2ccc(OC)cc2)c(O)c1 [DPP-14]	6.57 µg/mL and 17.3 µM	1.05	> 250 µg/mL	3.13 µg/mL (≈ 8.27 µM)	12.5 µg/mL (≈ 33 µM)	12.5 µg/mL (≈ 33 µM)	> 250 µg/mL	6.25 µg/mL	16.4 µM	6.25 µg/mL (≈ 16.5 µM)	16.45 µM	> 250 µg/mL	28.78%	44.58%	56.62%	YES	–	–	LC20 (HEK293 cells [1]): 3 µg/mL (≈ 7.93 µM); cells in G2/M phase (HEK293 cells [2]): 12.24% ± 1.23%; Morphological changes of HEK293 cells (HEK293 cells [2]): no morphological changes; RBC hemolysis (sheep red blood cells): not hemolytic
CCOc1ccc(-c2[nH]nc(C(F)(F)F)c2-c2ccccc2)c(O)c1 [DPP-3]	25.6 µg/mL and 76.5 µM	4.1	> 250 µg/mL	1.56 µg/mL (≈ 4.48 µM)	> 250 µg/mL	> 250 µg/mL	> 250 µg/mL	6.25 µg/mL	17.9 µM	6.25 µg/mL (≈ 17.9 µM)	17.86 µM	50 µg/mL (≈ 144 µM)	35.78%	49.41%	58.28%	YES	YES	–	–
FC(F)(F)c1n[nH]c(-c2ccccc2)c1-c1ccc(Cl)cc1 [DPP-21]	–	4.56	> 250 µg/mL	1.56 µg/mL (≈ 4.83 µM)	12.5 µg/mL (≈ 38.7 µM)	12.5 µg/mL (≈ 38.7 µM)	> 250 µg/mL	1.56 µg/mL	4.8 µM	1.56 µg/mL (≈ 4.83 µM)	4.8 µM	–	31.51%	35.84%	51.03%	YES	YES	> 250 µg/mL	MIC [9, 15]: 12.5 µg/mL (≈ 38.7 µM)
Oc1cc(OCc2ccccc2)ccc1-c1[nH]nc(C(F)(F)F)c1-c1ccc(Cl)cc1 [DPP-8]	14.2 µg/mL and 32 µM	9.14	> 250 µg/mL	12.5 µg/mL (≈ 28.1 µM)	1.56 µg/mL (≈ 3.51 µM)	3.12 µg/mL (≈ 7.01 µM)	> 250 µg/mL	1.56 µg/mL	3.51 µM	1.56 µg/mL (≈ 3.51 µM)	3.51 µM	250 µg/mL (≈ 562 µM)	12.26%	32.15%	36.10%	YES	YES	25 µg/mL (≈ 56.2 µM)	–
Oc1ccc(-c2onc(C(F)(F)F)c2-c2ccc(Cl)cc2)c(O)c1 [DPP-11]	3.41 µg/mL and 9.61 µM	1.10	> 250 µg/mL	1.56 µg/mL (≈ 4.39 µM)	12.5 µg/mL (≈ 35.1 µM)	12.5 µg/mL (≈ 35.1 µM)	> 250 µg/mL	3.12 µg/mL	8.76 µM	3.12 µg/mL (≈ 8.77 µM)	8.76 µM	62.5 µg/mL (≈ 176 µM)	24.77%	28.12%	57.97%	YES	YES	25 µg/mL (≈ 70.3 µM)	–
Oc1ccccc1-c1[nH]nc(C(F)(F)F)c1-c1ccc(Cl)cc1 [DPP-22]	2.89 µg/mL and 8.5 µM	1.85	> 250 µg/mL	1.56 µg/mL (≈ 4.61 µM)	12.5 µg/mL (≈ 36.9 µM)	12.5 µg/mL (≈ 36.9 µM)	> 250 µg/mL	1.56 µg/mL	4.59 µM	1.56 µg/mL (≈ 4.61 µM)	4.59 µM	–	–	–	–	–	YES	25 µg/mL (≈ 73.8 µM)	MIC [9, 15]: 12.5 µg/mL (≈ 36.9 µM)
